In one assay the test system is diamondback moth larvae. The assay is described as follows: Leaf dip bioassay, diamondback moth larvae. The settings on record: Plutella xylostella, foliar, Btk 0.54 ppm, flubendiamide 0.215 ppm, alone or mixed, read-out: % Efficacy. It is filed as in vivo.
A further assay deals with beet armyworm larvae. Nature of the assay: Leaf dip bioassay, beet armyworm larvae. It is filed as in vivo. The conditions noted are these: Spodoptera exigua, foliar, alone or mixed, read-out: % Efficacy. As to the method:
(§1) The present invention is not limited to the products or formulation types used herein. In each example below, the studies were conducted as follows.
(§2) For these tests, standardized laboratory leaf dip methods were used to inoculate plant material with treatment(s). Dry, treated leaves were placed into Petri dishes (100×25 mm) containing filter paper wetted with 500 μl of distilled H2O (“dH2O”). Each dish was then infested with between 5 and 10 larvae, dependent on species. Efficacy ratings were taken at specified intervals. Synergy ratings were calculated for each test.
(§3) % Cexp=A+B−(AB/100), where % Cexp is the expected efficacy and “in which A and B are the control levels given by the single [insecticides]. […] Adopting a conservative approach, Applicant determined synergy to be present at ratios of >1.15.

The next assay relates to cabbage looper larvae. The assay is described as follows: Leaf dip bioassay, cabbage looper larvae. It is filed as in vivo. The settings on record: Trichoplusia ni, foliar, Btk 0.54 ppm, flubendiamide 0.49 ppm, alone or mixed, read-out: % Efficacy. The method, then:
as §1, §2, §3

For a further assay, the system named is sugarcane borer larvae. Nature of the assay: Leaf dip bioassay, sugarcane borer larvae. It is filed as in vivo. The settings on record: foliar, Btk 0.54 ppm, flubendiamide 2.15 ppm, alone or mixed, read-out: % Efficacy. The method, then:
as §1, §2, §3

Assay [1] has as its system southwestern corn borer larvae. Nature of the assay: Leaf dip bioassay, southwestern corn borer larvae. Format: in vivo. The settings on record: foliar, Btk 0.54 ppm, flubendiamide 0.215 ppm, alone or mixed, read-out: % Efficacy. As to the method: as §1, §2, §3
Another assay concerns soybean looper larvae. Nature of the assay: Leaf dip bioassay, soybean looper larvae. It is filed as in vivo, Chrysodeixis includens. The settings on record: foliar, Btk 0.54 ppm, flubendiamide 3.9 ppm, alone or mixed, read-out: % Efficacy. As to the method: as §1, §2, §3
The subject of another assay is corn earworm larvae. The assay is described as follows: Leaf dip bioassay, corn earworm larvae. It is filed as in vivo. The conditions noted are these: Helicoverpa zea, foliar, Btk 0.54 ppm, flubendiamide 0.975 ppm, alone or mixed, read-out: % Efficacy. The method, then: as §1, §2, §3

Read-outs that look alike come from different tables or passages of the source.

Take `Cc1cc(C(F)(C(F)(F)F)C(F)(F)F)ccc1NC(=O)c1cccc(I)c1C(=O)NC(C)(C)CS(C)(=O)=O` [Flubendiamide, 3-iodo-N′-(2-mesyl-1,1-dimethylethyl)-N-{4-[1,2,2,2-tetrafluoro-1-(trifluoromethyl)ethyl]-o-tolyl}phthalamide]: the Emax at 0.215 ppm was found to be 7% with diamondback moth larvae (24 h after treatment), 19% in the assay with diamondback moth larvae (48 h after treatment), 40% in assay [1] (24 h after treatment) and 48% in assay [1] (48 h after treatment). Besides, the Emax at 0.49 ppm was determined as 6% in the assay with beet armyworm larvae (24 h after treatment), 14% with beet armyworm larvae (48 h after treatment), 7% in the assay with cabbage looper larvae (24 h after treatment) and 19% with cabbage looper larvae (48 h after treatment). In addition, the Emax at 2.15 ppm in the assay on sugarcane borer larvae (24 h after treatment) came out at 28%; with sugarcane borer larvae (48 h after treatment), 40%. The Emax at 3.9 ppm in the assay with soybean looper larvae (24 h after treatment) stood at 4%; in the assay with soybean looper larvae (48 h after treatment), 16%. For the same compound, the Emax at 0.975 ppm with corn earworm larvae (24 h after treatment) is 14%; in the assay on corn earworm larvae (48 h after treatment), 24%.

The values are drawn from patent publication US20170311606A1, “SYNERGISTIC BACILLUS THURINGIENSIS SUBSP. KURSTAKI AND FLUBENDIAMIDE MIXTURES FOR BEET ARMYWORM, SOYBEAN LOOPER, CORN EARWORM, AND CABBAGE LOOPER CONTROL” (priority 2016, published 2017).
